Assay results: patent US10925283B2, “Microbiocidal phenylamidine derivatives” (SYNGENTA PARTICIPATIONS AG, priority 2016, dated 2021)

Legend:
Assay type in all cases: in vivo
[1] = tested on: Puccinia recondita f. sp. tritici; assay: Puccinia recondita f. sp. tritici / wheat / leaf disc preventative (brown rust); settings: foliar, wheat leaf segments cv. Kanzler, inoculated 1 day after application, assessed 7-9 days after application, read-out: control of Puccinia recondita f. sp. tritici (percent disease control compared to untreated)
Procedure: Puccinia recondita f. Sp. Tritici/Wheat/Leaf Disc Preventative (Brown Rust) Wheat leaf segments cv. Kanzler are placed on agar in multiwell plates (24-well format) and sprayed with the formulated test compound diluted in water. The leaf disks are inoculated with a spore suspension of the fungus 1 day after application. The inoculated leaf segments are incubated at 19° C. and 75% rh under a light regime of 12 h light/12 h darkness in a climate cabinet and the activity of a compound is assessed as percent disease control compared to untreated when an appropriate level of disease damage appears in untreated check leaf segments (7-9 days after application).

[2] = tested on: Blumeria graminis f. sp. tritici (Erysiphe graminis f. sp. tritici); assay: Blumeria graminis f. sp. tritici / wheat / leaf disc preventative (powdery mildew on wheat); settings: foliar, wheat leaf segments cv. Kanzler, inoculated 1 day after application, assessed 6-8 days after application, read-out: control of Blumeria graminis f. sp. tritici (percent disease control compared to untreated)
Procedure: Blumeria graminis f. sp. tritici (Erysiphe graminis f. sp. tritici)/Wheat/Leaf Disc Preventative (Powdery Mildew on Wheat) Wheat leaf segments cv. Kanzler are placed on agar in a multiwell plate (24-well format) and sprayed with the formulated test compound diluted in water. The leaf disks are inoculated by shaking powdery mildew infected plants above the test plates 1 day after application. The inoculated leaf disks are incubated at 20° C. and 60% rh under a light regime of 24 h darkness followed by 12 h light/12 h darkness in a climate chamber and the activity of a compound is assessed as percent disease control compared to untreated when an appropriate level of disease damage appears on untreated check leaf segments (6-8 days after application).

[3] = tested on: Puccinia recondita f. sp. tritici; assay: Puccinia recondita f. sp. tritici / wheat / leaf disc curative (brown rust); settings: foliar, wheat leaf segments cv. Kanzler, compound applied 1 day after inoculation, assessed 6-8 days after application, read-out: control of Puccinia recondita f. sp. tritici (percent disease control compared to untreated)
Procedure: Puccinia recondita f. Sp. Tritici/Wheat/Leaf Disc Curative (Brown Rust) Wheat leaf segments cv. Kanzler are placed on agar in multiwell plates (24-well format). The leaf segments are inoculated with a spore suspension of the fungus. Plates are stored in darkness at 19° C. and 75% rh. The formulated test compound diluted in water is applied 1 day after inoculation. The leaf segments are incubated at 19° C. and 75% rh under a light regime of 12 h light/12 h darkness in a climate cabinet and the activity of a compound is assessed as percent disease control compared to untreated when an appropriate level of disease damage appears in untreated check leaf segments (6-8 days after application).

Measured: pest or weed control at 200 ppm

CCN(C)/C=N/c1cc(OC)c(C(O)(COCC(C)(C)COC(C)(C)C)C(F)(F)F)cc1C (stereo not drawn) [E.015, N′-[4-[1-[(3-tert-butoxy-2,2-dimethyl-propoxy)methyl]-2,2,2-trifluoro-1-hydroxy-ethyl]-5-methoxy-2-methyl-phenyl]-N-ethyl-N-methyl-formamidine]
≥ 80%: all assays above

CCO/N=C(/CC(O)(c1cc(C)c(/N=C/N(C)CC)cc1OC)C(F)(F)F)c1ccccc1 (stereo not drawn) [E.058, N′-[4-[(3Z)-3-ethoxyimino-1-hydroxy-3-phenyl-1-(trifluoromethyl)propyl]-5-methoxy-2-methyl-phenyl]-N-ethyl-N-methyl-formamidine]
≥ 80%: all assays above

CCN(C)/C=N/c1cc(OC)c(C(O)(COCCON=C(C)C)C(F)(F)F)cc1C (stereo not drawn) [E.016, N-ethyl-N′-[5-methoxy-2-methyl-4-[2,2,2-trifluoro-1-hydroxy-1-[2-(isopropylideneamino)oxyethoxymethyl]ethyl]phenyl]-N-methyl-formamidine]
≥ 80%: all assays above

CCN(C)/C=N/c1cc(OC)c(C(O)(COCc2ccccc2C)C(F)(F)F)cc1C (stereo not drawn) [E.029, N-ethyl-N′-[5-methoxy-2-methyl-4-[2,2,2-trifluoro-1-hydroxy-1-(o-tolylmethoxymethyl)ethyl]phenyl]-N-methyl-formamidine]
≥ 80%: all assays above

CCN(C)/C=N/c1cc(OC)c(C(O)(COC2CCC(C)(C)CC2)C(F)(F)F)cc1C (stereo not drawn) [E.038, N′-[4-[1-[(4,4-dimethylcyclohexoxy)methyl]-2,2,2-trifluoro-1-hydroxy-ethyl]-5-methoxy-2-methyl-phenyl]-N-ethyl-N-methyl-formamidine]
≥ 80%: all assays above

CCN(C)/C=N/c1cc(OC)c(C(O)(COCCOC)C(F)(F)F)cc1C (stereo not drawn) [E.012, N-ethyl-N′-[5-methoxy-2-methyl-4-[2,2,2-trifluoro-1-hydroxy-1-(2-methoxyethoxymethyl)ethyl]phenyl]-N-methyl-formamidine]
≥ 80%: all assays above

CCCC1OCC(C)(COCC(O)(c2cc(C)c(/N=C/N(C)CC)cc2OC)C(F)(F)F)CO1 (stereo not drawn) [E.001, N-ethyl-N′-[5-methoxy-2-methyl-4-[2,2,2-trifluoro-1-hydroxy-1-[(5-methyl-2-propyl-1,3-dioxan-5-yl)methoxymethyl]ethyl]phenyl]-N-methyl-formamidine]
≥ 80%: all assays above

CCN(C)/C=N/c1cc(OC)c(C(O)(COCC(C)(C)C)C(F)(F)F)cc1C (stereo not drawn) [E.008, N′-[4-[1-(2,2-dimethylpropoxymethyl)-2,2,2-trifluoro-1-hydroxy-ethyl]-5-methoxy-2-methyl-phenyl]-N-ethyl-N-methyl-formamidine]
≥ 80%: all assays above

CCN(C)/C=N/c1cc(OC)c(C(O)(COCCC(C)(C)OC)C(F)(F)F)cc1C (stereo not drawn) [E.019, N-ethyl-N′-[5-methoxy-2-methyl-4-[2,2,2-trifluoro-1-hydroxy-1-[(3-methoxy-3-methyl-butoxy)methyl]ethyl]phenyl]-N-methyl-formamidine]
≥ 80%: all assays above
